The text below walks through data of patent US20090258836A1, “EFFECTIVE DELIVERY OF CROSS-SPECIES A3 ADENOSINE-RECEPTOR ANTAGONISTS TO REDUCE INTRAOCULAR PRESSURE” (The Trustees of The University of Pennsylvania, priority 2006, published 2009).

Assay [1] relates to mouse IOP. Nature of the assay: Mouse IOP after topical application, non-invasive pneumotonometry. Type of assay: in vivo, Black Swiss mice. Put shortly:
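Black Swiss outbred mice (7-9 weeks, mixed sex) under intraperitoneal ketamine plus topical proparacaine 0.5%. Drugs applied topically as […] droplets three times, containing <2% DMSO and 0.0005% benzalkonium chloride; IOP measured non-invasively by pneumotonometry at 10-min intervals from a stereotactically fixed probe position.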

Assay [2] concerns mouse IOP. Put plainly: Mouse IOP after topical application, invasive servo-null micropipette system (SNMS). Type of assay: in vivo, Black Swiss mice. Particulars: after topical application. Put shortly:
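Black Swiss outbred mice, 7-9 weeks, under i.p. ketamine plus topical proparacaine. Drugs applied topically as droplets with <2% DMSO (none for hydrophilic compounds) and 0.0005% benzalkonium chloride, 295-300 mOsm. IOP measured invasively by servo-null micropipette 10 min after a single application.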

Turning to `CCOC(=O)C1=C(C)NC(c2ccccc2)=C(C(=O)OCc2ccccc2)C1C#Cc1ccccc1` (racemic) [MRS-1191, 3-ethyl 5-benzyl-2-methyl-6-phenyl-4-phenylethynyl-1,4-(±)-dihydropyridine-3,5-dicarboxylate], in the assay on mouse IOP [1] (after the initial application, end of the experiments), the “time of maximum decrease in IOP observed pneumotonometrically” value is 30 min. Moreover, the “time to begin lowering mouse IOP significantly, non-invasive” value in the assay with mouse IOP [1] (after topical application) was 30 min. Also, the “time to begin to lower IOP, invasive servo-null technique” value in the assay with mouse IOP [2] is “within about a minute”.
